The supplement of paper PMC11061612

Assays:
[1] = tested on: CA46 (Burkitt's Lymphoma); experiment: Bliss excess, mean over the matrix (fraction); higher = more synergy
Summary of the method: (§1)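 Cell lines in DMEM/F12 or RPMI with 10% FBS were plated in 1536-well plates, held 24 hours at 37°C, 5% CO2, then given two-drug dose matrices for 72 hours (DMSO typically 0.2%). Viability was read by CellTiter-Glo 2.0 luminescence and scaled as inhibition from 0 (vehicle wells) to 1 (blank wells). Combination Emax is the second-highest inhibition in the matrix; Bliss excess is observed combination effect minus expected EA + EB − EA·EB, EA and EB being single-agent effects.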

[2] = tested on: CESS (Acute Myeloid Leukemia); experiment: as above
Summary of the method: as §1

COLO-792 (Melanoma) = experiment: as above
Summary of the method: as §1

[3] = tested on: DMS-53 (Small Cell Lung Carcinoma); experiment: as above
Summary of the method: as §1

[4] = tested on: DU-4475 (Breast Carcinoma); experiment: as above
Summary of the method: as §1

EW-16 (Ewing's Sarcoma) = experiment: as above
Summary of the method: as §1

[5] = tested on: G-402 (Other Solid Carcinomas); experiment: as above
Summary of the method: as §1

[6] = tested on: HT55 (Colorectal Carcinoma); experiment: as above
Summary of the method: as §1

[7] = tested on: JVM-2 (B-Cell Non-Hodgkin's Lymphoma); experiment: as above
Summary of the method: as §1

[8] = tested on: Jurkat (T-Lymphoblastic Leukemia); experiment: as above
Summary of the method: as §1

KP-N-YN (Neuroblastoma) = experiment: as above
Summary of the method: as §1

[9] = tested on: NCI-H716 (Colorectal Carcinoma); experiment: as above
Summary of the method: as §1

[10] = tested on: OACp4C (Esophageal Adenocarcinoma); experiment: as above
Summary of the method: as §1

769-P (Kidney Carcinoma) = experiment: combination Emax (second highest fraction inhibited in the dose matrix, 72 h); higher = more inhibition; extreme values may be limits of the assay
Summary of the method: as §1

[11] = tested on: JHH-2 (Hepatocellular Carcinoma); experiment: as above
Summary of the method: as §1

[12] = tested on: JHU-022 (Oral Cavity Carcinoma); experiment: as above
Summary of the method: as §1

[13] = tested on: MDA-MB-436 (Breast Carcinoma); experiment: as above
Summary of the method: as §1

[14] = tested on: NCI-H1651 (Lung Adenocarcinoma); experiment: as above
Summary of the method: as §1

[15] = tested on: NCI-H2087 (Lung Adenocarcinoma); experiment: as above
Summary of the method: as §1

[16] = tested on: NCI-H441 (Lung Adenocarcinoma); experiment: as above
Summary of the method: as §1
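For Bliss excess, mean over the matrix in this document: after 72 h of two-drug dosing.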

Row | SMILES | Bliss excess [1] | Bliss excess [2] | Bliss excess (COLO-792 (Melanoma)) | Bliss excess [3] | Bliss excess [4] | Bliss excess (EW-16 (Ewing's Sarcoma)) | Bliss excess [5] | Bliss excess [6] | Bliss excess [7] | Bliss excess [8] | Bliss excess (KP-N-YN (Neuroblastoma)) | Bliss excess [9] | Bliss excess [10] | combination Emax (769-P (Kidney Carcinoma)) | combination Emax [11] | combination Emax [12] | combination Emax [13] | combination Emax [14] | combination Emax [15] | combination Emax [16]
1 | Cc1cc2ncnn2cc1Nc1ncc2c(n1)n(C1CCOCC1)c(=O)n2C [AZD7648] + CCN(CCO)CCCOc1ccc2c(Nc3cc(CC(=O)Nc4cccc(F)c4)[nH]n3)ncnc2c1 [AZD2811] (first compound max 10 µM, 7x7, partner max 1 µM) | 0.0249 | 0.0195 | -0.0769 | -0.0061 | 0.0035 | 0.0436 | 0.0421 | -0.0003 | 0.0382 | -0.01 | 0.0461 | 0.0292 | 0.0003 | 0.416 | 0.446 | 0.4 | 0.321 | 0.264 | 0.215 | 0.309
2 | CN(CCO)CC[C@H](CSc1ccccc1)Nc1ccc(S(=O)(=O)NC(=O)c2ccc(N3CCC([C@@H](O)c4ccccc4-c4ccc(Cl)cc4)CC3)cc2)cc1S(=O)(=O)C(F)(F)F [AZD4320] + CC(=O)O[C@H]1C(=O)[C@@]2(C)[C@H]([C@H](OC(=O)c3ccccc3)[C@]3(O)C[C@H](OC(=O)[C@H](O)[C@@H](NC(=O)c4ccccc4)c4ccccc4)C(C)=C1C3(C)C)[C@]1(OC(C)=O)CO[C@@H]1C[C@@H]2O [Paclitaxel] (first compound max 1 µM, 7x7, partner max 3 µM) | – | – | – | – | – | – | – | – | – | – | 0.0826 | – | – | 0.958 | 0.93 | 0.846 | 0.65 | 0.981 | 0.976 | 0.735
3 | Cc1cc2ncnn2cc1Nc1ncc2c(n1)n(C1CCOCC1)c(=O)n2C [AZD7648] + CN(C)CCCOc1ccc(-c2ccc3ncc4c(c3c2)n(C2CCOCC2)c(=O)n4C)cn1 [AZD0156] (first compound max 10 µM, 7x7, partner max 1 µM) | -0.0193 | -0.0013 | 0.036 | -0.0087 | -0.0209 | 0.0073 | -0.0271 | 0.0035 | -0.0297 | 0.0382 | 0.0088 | 0.0563 | 0.0043 | 0.264 | 0.491 | 0.3 | 0.289 | 0.194 | 0.146 | 0.324
4 | CN(CCO)CC[C@H](CSc1ccccc1)Nc1ccc(S(=O)(=O)NC(=O)c2ccc(N3CCC([C@@H](O)c4ccccc4-c4ccc(Cl)cc4)CC3)cc2)cc1S(=O)(=O)C(F)(F)F [AZD4320] + CCN(CCO)CCCOc1ccc2c(Nc3cc(CC(=O)Nc4cccc(F)c4)[nH]n3)ncnc2c1 [AZD2811] (first compound max 1 µM, 7x7, partner max 1 µM) | -0.0191 | 0.164 | 0.0627 | -0.0067 | 0.0738 | 0.14 | 0.0415 | -0.0005 | 0.0677 | 0.0105 | 0.0516 | -0.0242 | 0.0011 | 0.752 | 0.169 | 0.315 | 0.0639 | 0.204 | 0.464 | 0.202
5 | CN(CCO)CC[C@H](CSc1ccccc1)Nc1ccc(S(=O)(=O)NC(=O)c2ccc(N3CCC([C@@H](O)c4ccccc4-c4ccc(Cl)cc4)CC3)cc2)cc1S(=O)(=O)C(F)(F)F [AZD4320] + Cn1cnc2c(F)c(Nc3ccc(Br)cc3Cl)c(C(=O)NOCCO)cc21 [Selumetinib] (first compound max 1 µM, 7x7, partner max 3 µM) | -0.0435 | -0.0701 | 0.0279 | 0.0964 | 0.0444 | 0.076 | 0.0153 | 0.0074 | 0.025 | 0.0229 | 0.0076 | – | 0.0737 | 0.36 | 0.452 | 0.629 | 0.335 | 0.39 | 0.908 | 0.522
6 | COc1nnc2ccc(N3CCC(c4ccc(OCCN5CCN(C)C(=O)[C@H]5C)cc4)CC3)nn12 [AZD5153] + CN(CC[C@H](CSC1=CC=CC=C1)NC2=C(C=C(C=C2)S(=O)(=O)NC(=O)C3=CC=C(C=C3)N4CCC(CC4)[C@H](C5=CC=CC=C5C6=CC=C(C=C6)Cl)O)S(=O)(=O)C(F)(F)F)CCO [AZD4320] (first compound max 1 µM, 7x7, partner max 1 µM) | -0.0053 | 0.0356 | 0.0427 | -0.0168 | 0.0779 | 0.0851 | 0.0157 | -0.0021 | 0.0973 | 0.041 | – | -0.0394 | -0.0404 | – | – | – | – | – | – | –
7 | N#Cc1cnc(Nc2cc(NC[C@H]3CNCCO3)c(C(F)(F)F)cn2)cn1 [SRA737] + CCc1c2c(nc3ccc(O)cc13)-c1cc3c(c(=O)n1C2)COC(=O)[C@]3(O)CC [SN-38] (first compound max 10 µM, 7x7, partner max 0.3 µM) | – | – | – | – | – | – | – | – | – | – | -0.0189 | – | – | 0.9 | 0.724 | 0.759 | 0.549 | 0.835 | 0.918 | 0.663
8 | CC(=O)c1c(C)c2cnc(Nc3ccc(N4CCNCC4)cn3)nc2n(C2CCCC2)c1=O [Palbociclib] + CN(CC[C@H](CSC1=CC=CC=C1)NC2=C(C=C(C=C2)S(=O)(=O)NC(=O)C3=CC=C(C=C3)N4CCC(CC4)[C@H](C5=CC=CC=C5C6=CC=C(C=C6)Cl)O)S(=O)(=O)C(F)(F)F)CCO [AZD4320] (first compound max 10 µM, 7x7, partner max 1 µM) | -0.0474 | -0.0225 | -0.0863 | 0.038 | 0.0318 | -0.127 | -0.0503 | -0.043 | -0.0143 | -0.0316 | – | -0.0417 | -0.144 | – | – | – | – | – | – | –
9 | Cc1cc2ncnn2cc1Nc1ncc2c(n1)n(C1CCOCC1)c(=O)n2C [AZD7648] + COc1cc([C@@H]2c3cc4c(cc3[C@@H](O[C@@H]3O[C@@H]5CO[C@@H](C)O[C@H]5[C@H](O)[C@H]3O)[C@H]3COC(=O)[C@H]23)OCO4)cc(OC)c1O [Etoposide] (first compound max 10 µM, 7x7, partner max 10 µM) | – | – | – | – | – | – | – | – | – | – | 0.0446 | – | – | 0.75 | 0.605 | 0.577 | 0.386 | 0.738 | 0.633 | 0.449
10 | CN(CCO)CC[C@H](CSc1ccccc1)Nc1ccc(S(=O)(=O)NC(=O)c2ccc(N3CCC([C@@H](O)c4ccccc4-c4ccc(Cl)cc4)CC3)cc2)cc1S(=O)(=O)C(F)(F)F [AZD4320] + C[C@@H](Nc1cc(F)cc(F)c1)c1cc(C(=O)N(C)C)cc2c(=O)cc(N3CCOCC3)oc12 [AZD8186] (first compound max 1 µM, 7x7, partner max 3 µM) | 0.0317 | -0.0209 | 0.0763 | 0.0138 | 0.0131 | -0.0129 | 0.0818 | -0.0003 | 0.0133 | 0.0576 | -0.0097 | 0.0234 | – | 0.341 | 0.77 | 0.446 | 0.459 | 0.411 | 0.773 | 0.573
11 | C[C@@H](c1ccc2nccn2c1)n1nnc2ncc(-c3cnn(C)c3)nc21 [Savolitinib] + CN(CC[C@H](CSC1=CC=CC=C1)NC2=C(C=C(C=C2)S(=O)(=O)NC(=O)C3=CC=C(C=C3)N4CCC(CC4)[C@H](C5=CC=CC=C5C6=CC=C(C=C6)Cl)O)S(=O)(=O)C(F)(F)F)CCO [AZD4320] (first compound max 1 µM, 7x7, partner max 1 µM) | -0.0488 | -0.001 | 0.0139 | -0.036 | -0.0352 | -0.0994 | -0.0639 | -0.0439 | -0.0313 | -0.0638 | – | -0.0422 | -0.0291 | – | – | – | – | – | – | –
12 | CN(CCO)CC[C@H](CSc1ccccc1)Nc1ccc(S(=O)(=O)NC(=O)c2ccc(N3CCC([C@@H](O)c4ccccc4-c4ccc(Cl)cc4)CC3)cc2)cc1S(=O)(=O)C(F)(F)F [AZD4320] + Nc1ccn([C@@H]2O[C@H](CO)[C@@H](O)C2(F)F)c(=O)n1 [Gemcitabine] (first compound max 1 µM, 7x7, partner max 0.3 µM) | – | – | – | – | – | – | – | – | – | – | – | – | – | 0.903 | 0.525 | 0.787 | 0.531 | 0.543 | 0.881 | 0.765
13 | N#Cc1cnc(Nc2cc(NC[C@H]3CNCCO3)c(C(F)(F)F)cn2)cn1 [SRA737] + O=c1[nH]cc(F)c(=O)[nH]1 [5-Fluorouracil] (first compound max 10 µM, 7x7, partner max 20 µM) | – | – | – | – | – | – | – | – | – | – | -0.0468 | – | – | 0.756 | 0.623 | 0.513 | 0.409 | 0.479 | 0.309 | 0.381
14 | N#Cc1cnc(Nc2cc(NC[C@H]3CNCCO3)c(C(F)(F)F)cn2)cn1 [SRA737] + Nc1ccn([C@@H]2O[C@H](CO)[C@@H](O)C2(F)F)c(=O)n1 [Gemcitabine] (first compound max 10 µM, 7x7, partner max 0.3 µM) | – | – | – | – | – | – | – | – | – | – | – | – | – | 0.851 | 0.708 | 0.685 | 0.579 | 0.735 | 0.585 | 0.58
15 | N#Cc1cnc(Nc2cc(NC[C@H]3CNCCO3)c(C(F)(F)F)cn2)cn1 [SRA737] + C=CCn1c(=O)c2cnc(Nc3ccc(N4CCN(C)CC4)cc3)nc2n1-c1cccc(C(C)(C)O)n1 [AZD1775] (first compound max 10 µM, partner max 1 µM) | – | – | – | – | – | – | – | – | – | – | 0.0762 | – | – | 0.9 | 0.652 | 0.528 | 0.274 | 0.713 | 0.645 | 0.446
